We go through 28 substances from US20240384268A1, “Oligonucleotides” (Hudson Institute of Medical Research, priority 2021, published 2024).

In the oligonucleotide strings, read from the 5' end, every base follows the letter of its sugar. An asterisk marks phosphorothioate; unmarked linkages are phosphodiester. Other units and linkages are bracketed, terminal groups are in braces. A string of capitals states the bases alone. d = 2'-deoxy (DNA); m = 2'-O-methyl

The target in this series is T1, TLR8 (Homo sapiens, UniProt Q9NR97).
T1 sequence (Q9NR97 27-1041): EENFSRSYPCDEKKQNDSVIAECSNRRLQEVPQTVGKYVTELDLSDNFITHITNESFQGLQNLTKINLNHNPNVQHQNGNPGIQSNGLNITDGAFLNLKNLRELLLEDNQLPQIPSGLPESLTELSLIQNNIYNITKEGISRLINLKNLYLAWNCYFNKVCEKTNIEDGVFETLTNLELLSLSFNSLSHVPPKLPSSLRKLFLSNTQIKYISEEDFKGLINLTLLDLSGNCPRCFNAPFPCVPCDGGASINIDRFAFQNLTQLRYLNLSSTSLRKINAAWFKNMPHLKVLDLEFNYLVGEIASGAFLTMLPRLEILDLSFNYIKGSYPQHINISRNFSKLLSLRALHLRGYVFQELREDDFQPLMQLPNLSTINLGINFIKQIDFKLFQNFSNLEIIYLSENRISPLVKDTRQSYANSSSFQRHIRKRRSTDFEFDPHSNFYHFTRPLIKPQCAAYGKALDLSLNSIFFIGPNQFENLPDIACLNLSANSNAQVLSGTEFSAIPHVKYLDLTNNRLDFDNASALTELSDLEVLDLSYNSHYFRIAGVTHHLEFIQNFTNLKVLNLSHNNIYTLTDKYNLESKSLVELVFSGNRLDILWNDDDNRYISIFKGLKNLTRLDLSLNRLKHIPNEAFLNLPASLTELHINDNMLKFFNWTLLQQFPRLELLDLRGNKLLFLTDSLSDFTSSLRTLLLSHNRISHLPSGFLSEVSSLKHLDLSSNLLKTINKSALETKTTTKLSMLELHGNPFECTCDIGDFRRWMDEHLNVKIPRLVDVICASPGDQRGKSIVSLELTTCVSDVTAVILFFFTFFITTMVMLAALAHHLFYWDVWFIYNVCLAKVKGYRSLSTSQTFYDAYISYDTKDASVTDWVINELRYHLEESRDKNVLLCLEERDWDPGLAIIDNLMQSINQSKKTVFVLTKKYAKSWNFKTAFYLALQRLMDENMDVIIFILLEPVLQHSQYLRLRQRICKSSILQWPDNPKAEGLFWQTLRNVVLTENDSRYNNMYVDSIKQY
The series can be described thus: HEK-TLR8 NF-κB-luciferase reporter, R848 or Motolimod stimulation (potentiation or inhibition). The format is cell-based. Set-up: expressed in transfected cells; host or cells: 293XLhTLR8 (HEK293). As to conditions: HEK-TLR8; 500 nM ASO; fold increase relative to R848 without ASO (Alharbi et al., 2020).
For “mG*mA*mA*mA*mA*G*A*T*T*A*T*C*T*T*C*mU*mU*mU*mU*mA (GAAAAGATTATCTTCUUUUA; sugars from the 5' end m5 d10 m5, all phosphorothioate, methylation of C not given here) [[CDKN2B-AS1]2134]”, the “TLR8-500 nM: averaged NF-κB-Luciferase relative to R848” value amounted to 1.87 fold.

With “mG*mA*mU*mG*mG*T*T*C*C*A*G*T*C*C*C*mU*mC*mU*mU*mC (GAUGGTTCCAGTCCCUCUUC; antisense; sugars from the 5' end m5 d10 m5, all phosphorothioate, methylation of C not given here) [[LINC-PINT]1497.1]”, the “TLR8-500 nM: averaged NF-κB-Luciferase relative to R848” value was determined as 1.01 fold.

On to “mG*mA*mU*mU*mA*A*A*A*C*A*G*A*T*T*A*mA*mU*mA*mC*mA (mG*mA*mU*mU*mA*dA*dA*dA*dC*dA*dG*dA*dT*dT*dA*mA*mU*mA*mC*mA) [[CDKN2B-AS1]1773]”, for which the “TLR8-500 nM: averaged NF-κB-Luciferase relative to R848” value is listed as 1.48 fold.

Regarding “mG*mC*mA*mA*mG*G*C*A*G*A*G*A*A*A*C*mU*mC*mC*mA*mG (GCAAGGCAGAGAAACUCCAG; sugars from the 5' end m5 d10 m5, all phosphorothioate, methylation of C not given here) [[LINC-PINT]1315 KL]”, the “TLR8-500 nM: averaged NF-κB-Luciferase relative to R848” value is 2.69 fold.

Consider “mG*mC*mG*mU*mA*G*T*T*T*C*T*C*T*T*C*mC*mU*mC*mC*mC (GCGUAGTTTCTCTTCCUCCC; sugars from the 5' end m5 d10 m5, all phosphorothioate, methylation of C not given here) [[LINC-PINT]935 KL]”, for which the “TLR8-500 nM: averaged NF-κB-Luciferase relative to R848” value is 4.12 fold.

On to “mG*mG*mA*mU*mU*A*A*A*A*C*A*G*A*T*T*mA*mA*mU*mA*mC (GGAUUAAAACAGATTAAUAC; sugars from the 5' end m5 d10 m5, all phosphorothioate, methylation of C not given here) [[CDKN2B-AS1]1774]”, for which the “TLR8-500 nM: averaged NF-κB-Luciferase relative to R848” value was 1.67 fold.

As for “mG*mG*mG*mU*mC*T*C*C*T*C*C*A*C*A*C*mC*mC*mU*mU*mC (GGGUCTCCTCCACACCCUUC; antisense; sugars from the 5' end m5 d10 m5, all phosphorothioate, methylation of C not given here) [[LINC-PINT]128]”, the “TLR8-500 nM: averaged NF-κB-Luciferase relative to R848” value turned out to be 1.23 fold.

As to “mG*mG*mU*mC*mC*C*A*T*C*C*C*T*T*C*T*mG*mC*mU*mG*mC (GGUCCCATCCCTTCTGCUGC; sugars from the 5' end m5 d10 m5, all phosphorothioate, methylation of C not given here) [[LINC-PINT]103]”, the “TLR8-500 nM: averaged NF-κB-Luciferase relative to R848” value is 1.87 fold.

Regarding “mG*mG*mU*mC*mU*C*C*T*C*C*A*C*A*C*C*mC*mU*mU*mC*mU (mG*mG*mU*mC*mU*dC*dC*dT*dC*dC*dA*dC*dA*dC*dC*mC*mU*mU*mC*mU; antisense) [[LINC-PINT]127]”, the “TLR8-500 nM: averaged NF-κB-Luciferase relative to R848” value amounted to 3.72 fold.

Consider “mG*mG*mU*mG*mG*C*C*A*C*A*G*G*C*A*A*mC*mG*mU*mC*mA (GGUGGCCACAGGCAACGUCA; antisense; sugars from the 5' end m5 d10 m5, all phosphorothioate, methylation of C not given here) [[CDKN2B-AS1]2196]”, for which the “TLR8-500 nM: averaged NF-κB-Luciferase relative to R848” value is 0.98 fold.

Regarding “mG*mU*mC*mA*mA*A*C*C*T*A*G*A*A*A*G*mA*mA*mG*mC*mA (mG*mU*mC*mA*mA*dA*dC*dC*dT*dA*dG*dA*dA*dA*dG*mA*mA*mG*mC*mA; antisense) [[CDKN2B-AS1]1528]”, the “TLR8-500 nM: averaged NF-κB-Luciferase relative to R848” value came out at 1.85 fold.

Consider “mG*mU*mC*mC*mC*A*G*G*C*C*T*C*C*A*G*mU*mG*mU*mC*mU (mG*mU*mC*mC*mC*dA*dG*dG*dC*dC*dT*dC*dC*dA*dG*mU*mG*mU*mC*mU; antisense) [[CDKN2B-AS1]2223]”, for which the “TLR8-500 nM: averaged NF-κB-Luciferase relative to R848” value stood at 2.17 fold.

Take “mG*mU*mC*mC*mC*A*T*C*C*C*T*T*C*T*G*mC*mU*mG*mC*mC (GUCCCATCCCTTCTGCUGCC; antisense; sugars from the 5' end m5 d10 m5, all phosphorothioate, methylation of C not given here) [[LINC-PINT]102]”: the “TLR8-500 nM: averaged NF-κB-Luciferase relative to R848” value turned out to be 5.07 fold.

Take “mG*mU*mC*mC*mG*T*A*C*C*T*C*C*A*C*C*mC″mA*mC*mC*mG [[LINC-PINT]727.1]”: the “TLR8-500 nM: averaged NF-κB-Luciferase relative to R848” value is on record as 3.70 fold.

Turning to “mG*mU*mC*mU*mC*C*T*C*C*A*C*A*C*C*C*mU*mU*mC*mU*mC (mG*mU*mC*mU*mC*dC*dT*dC*dC*dA*dC*dA*dC*dC*dC*mU*mU*mC*mU*mC; antisense) [[LINC-PINT]126]”, the “TLR8-500 nM: averaged NF-κB-Luciferase relative to R848” value was 7.17 fold.

On to “mG*mU*mU*mC*mA*G*T*C*A*G*A*T*C*G*C*mU*mG*mG*mG*mA (mG*mU*mU*mC*mA*dG*dT*dC*dA*dG*dA*dT*dC*dG*dC*mU*mG*mG*mG*mA) [[LINC-PINT]412 KL]”, for which the “TLR8-500 nM: averaged NF-κB-Luciferase relative to R848” value worked out at 1.70 fold.

Consider “mU*mA*mA*mA*mA*T*A*A*G*G*G*G*A*A*T*mA*mG*mG*mG*mG (mU*mA*mA*mA*mA*dT*dA*dA*dG*dG*dG*dG*dA*dA*dT*mA*mG*mG*mG*mG) [[CDKN2B-AS1]80]”, for which the “TLR8-500 nM: averaged NF-κB-Luciferase relative to R848” value came to 1.30 fold.

“mU*mC*mC*mC*mA*A*C*T*C*T*T*C*T*A*A*mC*mU*mC*mG*mU (mU*mC*mC*mC*mA*dA*dC*dT*dC*dT*dT*dC*dT*dA*dA*mC*mU*mC*mG*mU; antisense) [[LINC-PINT]1284 KL]”: the “TLR8-500 nM: averaged NF-κB-Luciferase relative to R848” value came out at 13.35 fold.

For “mU*mC*mC*mC*mA*T*C*C*C*T*T*C*T*G*C*mU*mG*mA*mC*mA (UCCCATCCCTTCTGCUGACA; sugars from the 5' end m5 d10 m5, all phosphorothioate, methylation of C not given here) [[LINC-PINT]101]”, the “TLR8-500 nM: averaged NF-κB-Luciferase relative to R848” value is on record as 10.88 fold.

Take “mU*mC*mU*mC*mC*A*T*G*T*C*C*C*A*G*G*mC*mC*mU*mC*mC (mU*mC*mU*mC*mC*dA*dT*dG*dT*dC*dC*dC*dA*dG*dG*mC*mC*mU*mC*mC; antisense) [[CDKN2B-AS1]2230]”: the “TLR8-500 nM: averaged NF-κB-Luciferase relative to R848” value is recorded as 9.17 fold.

Turning to “mU*mC*mU*mC*mU*C*T*G*G*T*C*C*C*A*T*mC*mC*mC*mU*mU (mU*mC*mU*mC*mU*dC*dT*dG*dG*dT*dC*dC*dC*dA*dT*mC*mC*mC*mU*mU; antisense) [[LINC-PINT]110]”, the “TLR8-500 nM: averaged NF-κB-Luciferase relative to R848” value stood at 11.27 fold.

With “mU*mC*mU*mC*mU*G*G*T*C*C*C*A*T*C*C*mC*mU*mU*mC*mU (UCUCUGGTCCCATCCCUUCU; antisense; sugars from the 5' end m5 d10 m5, all phosphorothioate, methylation of C not given here) [[LINC-PINT]108]”, the “TLR8-500 nM: averaged NF-κB-Luciferase relative to R848” value was 11.42 fold.

In the case of “mU*mC*mU*mG*mG*T*C*C*C*A*T*C*C*C*T*mU*mC*mU*mG*mC (UCUGGTCCCATCCCTUCUGC; antisense; sugars from the 5' end m5 d10 m5, all phosphorothioate, methylation of C not given here) [[LINC-PINT]106]”, the “TLR8-500 nM: averaged NF-κB-Luciferase relative to R848” value came out at 5.25 fold.

With “mU*mG*mA*mC*mA*A*A*A*C*A*A*T*A*A*T*mA*mA*mC*mA*mG (mU*mG*mA*mC*mA*dA*dA*dA*dC*dA*dA*dT*dA*dA*dT*mA*mA*mC*mA*mG) [[LINC-PINT]384]”, the “TLR8-500 nM: averaged NF-κB-Luciferase relative to R848” value is given as 2.57 fold.

“mU*mG*mA*mC*mA*T*T*T*C*G*T*G*G*C*T*mC*mC*mU*mA*mC (mU*mG*mA*mC*mA*dT*dT*dT*dC*dG*dT*dG*dG*dC*dT*mC*mC*mU*mA*mC; antisense) [[LINC-PINT]523 KL]”: the “TLR8-500 nM: averaged NF-κB-Luciferase relative to R848” value amounted to 4.34 fold.

For “mU*mG*mA*mU*mG*A*T*G*C*T*T*G*C*A*G*mG*mA*mG*mG*mC (mU*mG*mA*mU*mG*dA*dT*dG*dC*dT*dT*dG*dC*dA*dG*mG*mA*mG*mG*mC) [[LINC-PINT|283.1]”, the “TLR8-500 nM: averaged NF-κB-Luciferase relative to R848” value stood at 1.57 fold.

Turning to “mU*mG*mG*mC*mG*T*A*G*T*T*T*C*T*C*T*mU*mC*mC*mU*mC (mU*mG*mG*mC*mG*dT*dA*dG*dT*dT*dT*dC*dT*dC*dT*mU*mC*mC*mU*mC; antisense) [[LINC-PINT]937.1]”, the “TLR8-500 nM: averaged NF-κB-Luciferase relative to R848” value was 4.25 fold.

As for “mU*mG*mU*mG*mA*A*A*A*G*A*T*T*A*T*C*mU*mU*mC*mU*mU (UGUGAAAAGATTATCUUCUU; sugars from the 5' end m5 d10 m5, all phosphorothioate, methylation of C not given here) [[CDKN2B-AS1]2137]”, the “TLR8-500 nM: averaged NF-κB-Luciferase relative to R848” value worked out at 4.97 fold.
